Data on 4 compounds can be found in US11033597B2, “Dermatological kit comprising compositions based on hibiscus flower and buriti oil” (MEDICAL BRANDS RESEARCH B.V., priority 2014, dated 2021).

Structures are written as SMILES. “Also recorded” adds a separate entry of the source.

The test system of this test is human skin explants. Kind of test: Exfoliating action of plant extracts on human skin explants ex vivo (morphology of the stratum corneum). In kind it is cell-based. The conditions noted are these: for Exfoliating activity, Result: day 4, compared to control group TJ.

Experimental: Particular attention is paid to the morphology of the stratum corneum.
Activity is assessed by examination of the morphology.
The explants were stored in BEM (BIO-EC's Explants Medium) at 37° C. in a humid atmosphere enriched with 5% C02.
The test product is applied topically at a rate of 2 μl per explant, using a spatula to spread, on days 0, 2 and 3.
On day 0, the 3 explants of batch T0 were removed and cut into 2. One portion was fixated in a buffered formalin solution and the second part was frozen at −80° C. At Day 4, the 3 explants of each batch were taken and treated in the same manner.
After a fixation of 24 hours in buffered formalin, the samples were dried and soaked in paraffin using an automatic dehydration system, Leica TP 1020. They were embedded in a resin using a coating system Leica EG 1160.
Slices of 5 microns have been produced using a microtome type Minot Leica RM 2125 and mounted on microscope slides type histological SuperFrost®.
Microscopic observations were performed by optical microscopy, using a Leica Orthoplan microscope and an Olympus BX43. The shots were made with an Olympus DP72 camera and Cell ^ D software.
Paraffin sections were stained with Masson's trichrome stain, Goldner variant. Microscopic examination was carried out to assess the general morphology of the dermal and epidermal structures.
Particular attention was paid to the morphology of the Stratum Corneum.

Take `O=C(O)c1ccccc1O` [Product P1, Natural Salicylic Acid]: the “exfoliation of the upper layers of the stratum corneum (morphology)” value (shortened to “exfoliation of the upper layers … (morphology)”) (0.25% (C3), day 4) is recorded as “appeared normal; also recorded: does not present a significant exfoliating activity”; the “exfoliation of the upper layers … (morphology)” value (0.5% (C2), day 4) is given as “appeared normal; also recorded: does not present a significant exfoliating activity”; the “exfoliation of the upper layers … (morphology)” value (1% (C1), day 4) was “light exfoliation of the upper layers”. The “number of cell layers of the SC” value (1% (C1), day 4) is on record as “slightly reduced”. For the setting “1% (C1)”, the “Exfoliating activity, Result” value is 4.

For `CC(O)C(=O)O` (stereo not drawn) [Product P3, Lactic acid], the “exfoliation of the upper layers … (morphology)” value runs as follows: (0.25% (C3), day 4) “appeared normal; also recorded: no appreciable exfoliating activity”; (0.5% (C2), day 4) “very light exfoliation of the upper layers”; (1% (C1), day 4) “light exfoliation of the upper layers”. The “Exfoliating activity, Result” value (0.5% (C2)) is given as 2 and the “Exfoliating activity, Result” value (1% (C1)) stood at 4. The “number of cell layers of the SC” value (1% (C1), day 4) is reported as “slightly reduced”.

As to `O=C(O)CO` [Product P4, glycolic acid], the “exfoliation of the upper layers … (morphology)” value was “appeared normal; also recorded: no appreciable exfoliating activity” (0.25% (C3), day 4); “very light and irregular exfoliation of the upper layers” (0.5% (C2), day 4); “light and irregular exfoliation of the upper layers; also recorded: slight irregular exfoliation” (1% (C1), day 4). Moreover, the “Exfoliating activity, Result” value reads like this: (0.5% (C2)) 3; (1% (C1)) 4.

`O=C(O)C(Cl)(Cl)Cl` [Product P6, trichloroacetic acid]: the “exfoliation of the upper layers … (morphology)” value is “appeared normal; also recorded: no significant activity in the exfoliation” (0.25% (C3), day 4); “light and irregular exfoliation of the upper layers; also recorded: uneven exfoliation” (0.5% (C2), day 4); “moderate exfoliation of the upper layers” (1% (C1), day 4). Besides, the “number of cell layers of the SC” value was “slightly reduced” (0.5% (C2), day 4) and “moderately reduced” (1% (C1), day 4). Also, the “Exfoliating activity, Result” value came out at 4 (0.5% (C2)) and 6 (1% (C1)). For the same compound, the “exfoliating activity, comparison of products” value (especially samples of 1% concentration, day 4) was “best exfoliating activity”.
